Activity calls are given as the source filed them. The rule behind the calls is not given here.
How the values were obtained:
Bombus terrestris [1] = experiment: Toxicity against worker Bombus terrestris (bumblebee) assessed as reduction in reproduction at 96 mg a.i./l, po administered through pollen for 11 weeks measured once a week for 11 weeks; type: functional, organism-based
Bombus terrestris [2] = experiment: Toxicity against worker Bombus terrestris (bumblebee) assessed as mortality at 96 mg a.i./l, po administered through pollen for 11 weeks measured everyday for 3 days followed by once a week for 11 weeks; type: functional, organism-based
Bombus terrestris [3] = experiment: Contact toxicity against worker Bombus terrestris (bumblebee) assessed as mortality at 96 mg a.i./l applied on the dorsal thorax for 11 weeks measured everyday for 3 days followed by once a week for 11 weeks; type: functional
Bombus terrestris [4] = experiment: Toxicity against worker Bombus terrestris (bumblebee) assessed as mortality at 96 mg a.i./l, po administered through sugar water for 11 weeks measured everyday for 3 days followed by once a week for 11 weeks; type: functional
Bombus terrestris [5] = experiment: Toxicity against worker Bombus terrestris (bumblebee) assessed as reduction in reproduction at 96 mg a.i./l, po administered through sugar water for 11 weeks measured once a week for 11 weeks relative to control; type: functional, organism-based
Bombus terrestris [6] = experiment: Contact toxicity against worker Bombus terrestris (bumblebee) assessed as reduction in reproduction at 96 mg a.i./l applied on the dorsal thorax for 11 weeks measured once a week for 11 weeks relative to control; type: functional, organism-based
Bombus terrestris [7] = experiment: Contact toxicity against worker Bombus terrestris (bumblebee) assessed as mortality at 0.8 mg a.i./l applied on the dorsal thorax for 11 weeks measured everyday for 3 days followed by once a week for 11 weeks; type: functional
Bombus terrestris [8] = experiment: Toxicity against worker Bombus terrestris (bumblebee) assessed as reduction in reproduction at 0.8 mg a.i./l, po administered through pollen for 11 weeks measured once a week for 11 weeks; type: functional, organism-based
Bombus terrestris [9] = experiment: Toxicity against worker Bombus terrestris (bumblebee) assessed as mortality at 0.8 mg a.i./l, po administered through pollen for 11 weeks measured everyday for 3 days followed by once a week for 11 weeks; type: functional, organism-based
Bombus terrestris [10] = experiment: Toxicity against worker Bombus terrestris (bumblebee) assessed as reduction in reproduction at 0.8 mg a.i./l, po administered through sugar water for 11 weeks measured once a week for 11 weeks relative to control; type: functional, organism-based
Bombus terrestris [11] = experiment: Contact toxicity against worker Bombus terrestris (bumblebee) assessed as reduction in reproduction at 0.8 mg a.i./l applied on the dorsal thorax for 11 weeks measured once a week for 11 weeks relative to control; type: functional, organism-based
Bombus terrestris [12] = experiment: Toxicity against worker Bombus terrestris (bumblebee) assessed as mortality at 0.8 mg a.i./l, po administered through sugar water for 11 weeks measured everyday for 3 days followed by once a week for 11 weeks; type: functional
Bombus terrestris [13] = experiment: Toxicity against worker Bombus terrestris (bumblebee) assessed as reduction in reproduction at 150 mg a.i./l, po administered through sugar water for 11 weeks measured once a week for 11 weeks relative to control; type: functional, organism-based
Bombus terrestris [14] = experiment: Toxicity against worker Bombus terrestris (bumblebee) assessed as reduction in reproduction at 150 mg a.i./l, po administered through pollen for 11 weeks measured once a week for 11 weeks; type: functional; set-up: scale not given: the % may be the effect or the level left
Bombus terrestris [15] = experiment: Toxicity against worker Bombus terrestris (bumblebee) assessed as mortality at 150 mg a.i./l, po administered through sugar water for 11 weeks measured everyday for 3 days followed by once a week for 11 weeks; type: functional
Bombus terrestris [16] = experiment: Contact toxicity against worker Bombus terrestris (bumblebee) assessed as mortality at 150 mg a.i./l applied on the dorsal thorax for 11 weeks measured everyday for 3 days followed by once a week for 11 weeks; type: functional
Bombus terrestris [17] = experiment: Contact toxicity against worker Bombus terrestris (bumblebee) assessed as reduction in reproduction at 150 mg a.i./l applied on the dorsal thorax for 11 weeks measured once a week for 11 weeks relative to control; type: functional, organism-based
Bombus terrestris [18] = experiment: Toxicity against worker Bombus terrestris (bumblebee) assessed as mortality at 150 mg a.i./l, po administered through pollen for 11 weeks measured everyday for 3 days followed by once a week for 11 weeks; type: functional, organism-based
Bombus terrestris [19] = experiment: Contact toxicity against worker Bombus terrestris (bumblebee) assessed as reduction in reproduction at 75 mg a.i./l applied on the dorsal thorax for 11 weeks measured once a week for 11 weeks relative to control; type: functional, organism-based
Bombus terrestris [20] = experiment: Contact toxicity against worker Bombus terrestris (bumblebee) assessed as mortality at 75 mg a.i./l applied on the dorsal thorax for 11 weeks measured everyday for 3 days followed by once a week for 11 weeks; type: functional
Bombus terrestris [21] = experiment: Toxicity against worker Bombus terrestris (bumblebee) assessed as mortality at 75 mg a.i./l, po administered through sugar water for 11 weeks measured everyday for 3 days followed by once a week for 11 weeks; type: functional
Bombus terrestris [22] = experiment: Contact toxicity against worker Bombus terrestris (bumblebee) assessed as mortality at 75 mg a.i./l applied on the dorsal thorax measured up to 1 week; type: functional, organism-based
Bombus terrestris [23] = experiment: Toxicity against worker Bombus terrestris (bumblebee) assessed as mortality at 75 mg a.i./l, po administered through pollen for 11 weeks measured everyday for 3 days followed by once a week for 11 weeks; type: functional
Bombus terrestris [24] = experiment: Toxicity against worker Bombus terrestris (bumblebee) assessed as reduction in reproduction at 75 mg a.i./l, po administered through pollen for 11 weeks measured once a week for 11 weeks; type: functional, organism-based
Bombus terrestris [25] = experiment: Toxicity against worker Bombus terrestris (bumblebee) assessed as mortality at 75 mg a.i./l, po administered through sugar water measured after 9 to 11 weeks; type: functional, organism-based
Bombus terrestris [26] = experiment: Toxicity against worker Bombus terrestris (bumblebee) assessed as reduction in reproduction at 75 mg a.i./l, po administered through sugar water for 11 weeks measured once a week for 11 weeks relative to control; type: functional, organism-based
Bombus terrestris [27] = experiment: Toxicity against worker Bombus terrestris (bumblebee) assessed as mortality at 200 mg a.i./l, po administered through sugar water for 11 weeks measured everyday for 3 days followed by once a week for 11 weeks; type: functional
Bombus terrestris [28] = experiment: Contact toxicity against worker Bombus terrestris (bumblebee) assessed as mortality at 200 mg a.i./l applied on the dorsal thorax for 11 weeks measured everyday for 3 days followed by once a week for 11 weeks; type: functional
Bombus terrestris [29] = experiment: Toxicity against worker Bombus terrestris (bumblebee) assessed as reduction in reproduction at 200 mg a.i./l, po administered through pollen for 11 weeks measured once a week for 11 weeks; type: functional; set-up: scale not given: the % may be the effect or the level left
Bombus terrestris [30] = experiment: Contact toxicity against worker Bombus terrestris (bumblebee) assessed as reduction in reproduction at 200 mg a.i./l applied on the dorsal thorax for 11 weeks measured once a week for 11 weeks relative to control; type: functional, organism-based
Bombus terrestris [31] = experiment: Contact toxicity against Bombus terrestris (bumblebee) assessed per bee; type: functional
Bombus terrestris [32] = experiment: Toxicity against worker Bombus terrestris (bumblebee) assessed as mortality at 200 mg a.i./l, po administered through pollen for 11 weeks measured everyday for 3 days followed by once a week for 11 weeks; type: functional
Apis mellifera = experiment: Contact toxicity against Apis mellifera (honey bee) assessed per bee; type: functional

CCC(C)(C)C(=O)OC1=C(c2ccc(Cl)cc2Cl)C(=O)OC12CCCCC2 [SPIRODICLOFEN]
Activity (Bombus terrestris [1]): Active
Activity (Bombus terrestris [2]): inactive
mortality at 96 µg/mL (Bombus terrestris [3]): < 25%
mortality at 96 µg/mL (Bombus terrestris [4]): < 25%
Activity (Bombus terrestris [5]): Active
Activity (Bombus terrestris [6]): inactive

Cc1cc(C)c(C2=C(OC(=O)CC(C)(C)C)C3(CCCC3)OC2=O)c(C)c1 [SPIROMESIFEN]
mortality at 0.8 µg/mL (Bombus terrestris [7]): < 25%
Activity (Bombus terrestris [8]): Active
Activity (Bombus terrestris [9]): inactive
Activity (Bombus terrestris [10]): Active
Activity (Bombus terrestris [11]): inactive
mortality at 0.8 µg/mL (Bombus terrestris [12]): < 25%

CCCCCCCCCCCCC1=C(OC(C)=O)C(=O)c2ccccc2C1=O [ACEQUINOCYL]
Activity (Bombus terrestris [13]): Active
Activity (Bombus terrestris [14]): 50%
mortality at 150 µg/mL (Bombus terrestris [15]): < 25%
mortality at 150 µg/mL (Bombus terrestris [16]): < 25%
Activity (Bombus terrestris [17]): Active
Activity (Bombus terrestris [18]): inactive

CC(C)(C)c1ccc(CSc2cnn(C(C)(C)C)c(=O)c2Cl)cc1 [PYRIDABEN]
Activity (Bombus terrestris [19]): inactive
mortality at 75 µg/mL (Bombus terrestris [20]): 50%
mortality at 75 µg/mL (Bombus terrestris [21]): 95%
Activity (Bombus terrestris [22]): Active
mortality at 75 µg/mL (Bombus terrestris [23]): 90%
Activity (Bombus terrestris [24]): Active
Activity (Bombus terrestris [25]): Active
Activity (Bombus terrestris [26]): Active

CC(C)(C)c1ccc(CCOc2ncnc3ccccc23)cc1 [FENAZAQUIN]
mortality at 200 µg/mL (Bombus terrestris [27]): 25%
mortality at 200 µg/mL (Bombus terrestris [28]): < 25%
Activity (Bombus terrestris [29]): 50%
Activity (Bombus terrestris [30]): inactive
LD50 (Bombus terrestris [31]): >100 µg
mortality at 200 µg/mL (Bombus terrestris [32]): 90%
LD50 (Apis mellifera): <1 µg

Source: ChEMBL document CHEMBL3045684, “Compatibility of traditional and novel acaricides with bumblebees (Bombus terrestris): a first laboratory assessment of toxicity and sublethal effects” (Pest Manag Sci, 2010)
